Like-named read-outs stand apart in the source and are kept apart here. No end group written: not given here.
Experiment: Solubility study of P144
Type: physicochemical

Solubility (Dicloromethane (DCM)): insoluble
Solubility (Dimethyl sulfoxide (DMSO)): very soluble
Solubility (Dimethylformamide (DMF)): insoluble
Solubility (Ethanol): insoluble
Solubility (Gantrez ® S97 2-5%): insoluble
Solubility (Glycerol): insoluble
Solubility (Hexane): insoluble
Solubility (Human albumin 20%, read-out: Solubility): 0.25 mg/mL
Solubility (Hydroxy-propyl-β-cyclodextrin 5%, read-out: Solubility): 0.25 mg/mL
Solubility (PEG 400): insoluble
Solubility (PLASDONE 5%): insoluble
Solubility (Pluronic F68 (1-10%)): insoluble
Solubility (Proplylene glycol): insoluble
Solubility (Sodium deoxycholate 5%): insoluble
Solubility (Tetrahydrofurane (THF)): insoluble
Solubility (Urea 10%, read-out: Solubility): 0.25 mg/mL
Solubility (distilled water): insoluble
Sequence: TSLDASIIWAMMQN [Formula P144, TSLDASIIWAMMQN]
